Laboratory results reported in PubChem BioAssay AID2060491 (Molecular Pharmacology Branch, DTP, NCI, 2025).

Tested on: 857933-349-R-J2-PDC complex spheroids, viability
Assay: Anticancer human tumor 857933-349-R-J2-PDC patient-derived colon adenocarcinoma cell line growth inhibition [GQUAD]
Conditions: for IC50: curve of first compound; for viability, T/C: stronger effect = lower value
Method in brief: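 Multi-cell-type spheroids of tumor cells with HUVEC and mesenchymal stem cells, treated with drug combinations. Concentrations descend in half-log steps from near clinical Cmax, or from 10 microM where Cmax is unknown; viability read-out.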

[1] = second compound 0.0316 µM, first compound 0.0316 µM
[2] = second compound 0.0316 µM, first compound 0.1 µM
[3] = second compound 0.0316 µM, first compound 0.316 µM
[4] = second compound 0.0316 µM, first compound 1 µM
[5] = second compound 0.0316 µM, first compound 3.16 µM
[6] = second compound 0.0316 µM, first compound 10 µM
[7] = second compound 0.1 µM, first compound 0.0316 µM
[8] = second compound 0.1 µM, first compound 0.1 µM
[9] = second compound 0.1 µM, first compound 0.316 µM
[10] = second compound 0.1 µM, first compound 1 µM
[11] = second compound 0.1 µM, first compound 3.16 µM
[12] = second compound 0.1 µM, first compound 10 µM
[13] = second compound 0.316 µM, first compound 0.0316 µM
[14] = second compound 0.316 µM, first compound 0.1 µM
[15] = second compound 0.316 µM, first compound 0.316 µM
[16] = second compound 0.316 µM, first compound 1 µM
[17] = second compound 0.316 µM, first compound 3.16 µM
[18] = second compound 0.316 µM, first compound 10 µM
[19] = second compound 1 µM, first compound 0.0316 µM
[20] = second compound 1 µM, first compound 0.1 µM
[21] = second compound 1 µM, first compound 0.316 µM
[22] = second compound 1 µM, first compound 1 µM
[23] = second compound 1 µM, first compound 3.16 µM
[24] = second compound 1 µM, first compound 10 µM
[25] = second compound 3.16 µM, first compound 0.0316 µM
[26] = second compound 3.16 µM, first compound 0.1 µM
[27] = second compound 3.16 µM, first compound 0.316 µM
[28] = second compound 3.16 µM, first compound 1 µM
[29] = second compound 3.16 µM, first compound 3.16 µM
[30] = second compound 3.16 µM, first compound 10 µM
[31] = second compound 10 µM, first compound 0.0316 µM
[32] = second compound 10 µM, first compound 0.1 µM
[33] = second compound 10 µM, first compound 0.316 µM
[34] = second compound 10 µM, first compound 1 µM
[35] = second compound 10 µM, first compound 3.16 µM
[36] = second compound 10 µM, first compound 10 µM
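Also: spheroids exposed to compounds for one week before readout.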
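For viability, T/C in this document: percent viability relative to vehicle DMSO wells taken as 100%.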

C=CCn1c(=O)c2cnc(Nc3ccc(N4CCN(C)CC4)cc3)nc2n1-c1cccc(C(C)(C)O)n1 + CN(C)c1ccc(Nc2c3ccc(NC(=O)CCN4CCCC4)cc3nc3cc(NC(=O)CCN4CCCC4)ccc23)cc1
IC50 (second compound 0.0316 µM): 1840 nM
IC50 (second compound 0.1 µM): 1650 nM
IC50 (second compound 0.316 µM): 1510 nM
IC50 (second compound 1 µM): 1570 nM
IC50 (second compound 3.16 µM): 1190 nM
IC50 (second compound 10 µM): 756 nM
viability, T/C [1]: 102%
viability, T/C [2]: 102%
viability, T/C [3]: 96.6%
viability, T/C [4]: 75.7%
viability, T/C [5]: 26.1%
viability, T/C [6]: 27.9%
viability, T/C [7]: 101%
viability, T/C [8]: 99.4%
viability, T/C [9]: 99.2%
viability, T/C [10]: 68.6%
viability, T/C [11]: 24.3%
viability, T/C [12]: 27.3%
viability, T/C [13]: 97.7%
viability, T/C [14]: 95.3%
viability, T/C [15]: 101%
viability, T/C [16]: 63.1%
viability, T/C [17]: 28.4%
viability, T/C [18]: 24.9%
viability, T/C [19]: 94.3%
viability, T/C [20]: 81.6%
viability, T/C [21]: 87.8%
viability, T/C [22]: 60.8%
viability, T/C [23]: 32.5%
viability, T/C [24]: 33.8%
viability, T/C [25]: 88%
viability, T/C [26]: 73.5%
viability, T/C [27]: 75.5%
viability, T/C [28]: 53.5%
viability, T/C [29]: 31.8%
viability, T/C [30]: 28.6%
viability, T/C [31]: 62.1%
viability, T/C [32]: 62.6%
viability, T/C [33]: 57.6%
viability, T/C [34]: 47.7%
viability, T/C [35]: 32.2%
viability, T/C [36]: 25.2%

CC(C)(O)C1CCC(Nc2ccc3ncc(-c4cccc(C(F)(F)F)c4)n3n2)CC1 (stereo not drawn) + CN(C)c1ccc(Nc2c3ccc(NC(=O)CCN4CCCC4)cc3nc3cc(NC(=O)CCN4CCCC4)ccc23)cc1
IC50 (second compound 0.0316 µM): 801 nM
IC50 (second compound 0.1 µM): 732 nM
IC50 (second compound 0.316 µM): 691 nM
IC50 (second compound 1 µM): 684 nM
IC50 (second compound 3.16 µM): 596 nM
IC50 (second compound 10 µM): 456 nM
viability, T/C [1]: 117%
viability, T/C [2]: 98.4%
viability, T/C [3]: 97.5%
viability, T/C [4]: 39.1%
viability, T/C [5]: 2.79%
viability, T/C [6]: 2.75%
viability, T/C [7]: 102%
viability, T/C [8]: 94%
viability, T/C [9]: 89.3%
viability, T/C [10]: 35.6%
viability, T/C [11]: 2.84%
viability, T/C [12]: 2.87%
viability, T/C [13]: 99%
viability, T/C [14]: 94.3%
viability, T/C [15]: 87.2%
viability, T/C [16]: 32.6%
viability, T/C [17]: 3.05%
viability, T/C [18]: 3.1%
viability, T/C [19]: 94%
viability, T/C [20]: 83.2%
viability, T/C [21]: 83.3%
viability, T/C [22]: 33.8%
viability, T/C [23]: 3.77%
viability, T/C [24]: 3.15%
viability, T/C [25]: 78.9%
viability, T/C [26]: 75.5%
viability, T/C [27]: 74.2%
viability, T/C [28]: 30.4%
viability, T/C [29]: 7.32%
viability, T/C [30]: 5.21%
viability, T/C [31]: 62.9%
viability, T/C [32]: 66.4%
viability, T/C [33]: 59.4%
viability, T/C [34]: 30.1%
viability, T/C [35]: 15.3%
viability, T/C [36]: 9.67%

Cc1[nH]c2ccccc2c1CCNCc1ccc(/C=C/C(=O)NO)cc1 + CN(C)c1ccc(Nc2c3ccc(NC(=O)CCN4CCCC4)cc3nc3cc(NC(=O)CCN4CCCC4)ccc23)cc1
IC50 (second compound 0.0316 µM): > 316 nM
IC50 (second compound 0.1 µM): > 316 nM
IC50 (second compound 0.316 µM): > 316 nM
IC50 (second compound 1 µM): > 316 nM
IC50 (second compound 3.16 µM): > 316 nM
IC50 (second compound 10 µM): > 316 nM
viability, T/C (second compound 0.0316 µM, first compound 0.000999 µM): 105%
viability, T/C (second compound 0.0316 µM, first compound 0.00316 µM): 99.6%
viability, T/C (second compound 0.0316 µM, first compound 0.00999 µM): 109%
viability, T/C [1]: 101%
viability, T/C (second compound 0.0316 µM, first compound 0.0999 µM): 109%
viability, T/C [3]: 60.2%
viability, T/C (second compound 0.1 µM, first compound 0.000999 µM): 105%
viability, T/C (second compound 0.1 µM, first compound 0.00316 µM): 102%
viability, T/C (second compound 0.1 µM, first compound 0.00999 µM): 99.3%
viability, T/C [7]: 103%
viability, T/C (second compound 0.1 µM, first compound 0.0999 µM): 101%
viability, T/C [9]: 61.5%
viability, T/C (second compound 0.316 µM, first compound 0.000999 µM): 104%
viability, T/C (second compound 0.316 µM, first compound 0.00316 µM): 103%
viability, T/C (second compound 0.316 µM, first compound 0.00999 µM): 103%
viability, T/C [13]: 99.8%
viability, T/C (second compound 0.316 µM, first compound 0.0999 µM): 117%
viability, T/C [15]: 60.5%
viability, T/C (second compound 1 µM, first compound 0.000999 µM): 97.1%
viability, T/C (second compound 1 µM, first compound 0.00316 µM): 91.7%
viability, T/C (second compound 1 µM, first compound 0.00999 µM): 95.7%
viability, T/C [19]: 97.9%
viability, T/C (second compound 1 µM, first compound 0.0999 µM): 105%
viability, T/C [21]: 59.5%
viability, T/C (second compound 3.16 µM, first compound 0.000999 µM): 80.6%
viability, T/C (second compound 3.16 µM, first compound 0.00316 µM): 79.8%
viability, T/C (second compound 3.16 µM, first compound 0.00999 µM): 93.5%
viability, T/C [25]: 80.6%
viability, T/C (second compound 3.16 µM, first compound 0.0999 µM): 91.7%
viability, T/C [27]: 55.1%
viability, T/C (second compound 10 µM, first compound 0.000999 µM): 64%
viability, T/C (second compound 10 µM, first compound 0.00316 µM): 73.2%
viability, T/C (second compound 10 µM, first compound 0.00999 µM): 70%
viability, T/C [31]: 76.4%
viability, T/C (second compound 10 µM, first compound 0.0999 µM): 72.2%
viability, T/C [33]: 41.7%

O=C(NO)c1cnc(N2CCN(S(=O)(=O)c3ccc4ccccc4c3)CC2)nc1 + CN(C)c1ccc(Nc2c3ccc(NC(=O)CCN4CCCC4)cc3nc3cc(NC(=O)CCN4CCCC4)ccc23)cc1
IC50 (second compound 0.0316 µM): 1480 nM
IC50 (second compound 0.1 µM): 1510 nM
IC50 (second compound 0.316 µM): 1310 nM
IC50 (second compound 1 µM): 1230 nM
IC50 (second compound 3.16 µM): 1130 nM
IC50 (second compound 10 µM): 658 nM
viability, T/C [1]: 106%
viability, T/C [2]: 100%
viability, T/C [3]: 101%
viability, T/C [4]: 75.1%
viability, T/C [5]: 0.74%
viability, T/C [6]: 0.27%
viability, T/C [7]: 101%
viability, T/C [8]: 99.3%
viability, T/C [9]: 93.8%
viability, T/C [10]: 77.1%
viability, T/C [11]: 0.65%
viability, T/C [12]: 0.57%
viability, T/C [13]: 101%
viability, T/C [14]: 100%
viability, T/C [15]: 93%
viability, T/C [16]: 64.9%
viability, T/C [17]: 1.11%
viability, T/C [18]: 0.38%
viability, T/C [19]: 97.2%
viability, T/C [20]: 97%
viability, T/C [21]: 92.9%
viability, T/C [22]: 60.7%
viability, T/C [23]: 0.83%
viability, T/C [24]: 0.36%
viability, T/C [25]: 89%
viability, T/C [26]: 80.1%
viability, T/C [27]: 92.4%
viability, T/C [28]: 55.7%
viability, T/C [29]: 1%
viability, T/C [30]: 0.3%
viability, T/C [31]: 66.2%
viability, T/C [32]: 68.2%
viability, T/C [33]: 68.5%
viability, T/C [34]: 40%
viability, T/C [35]: 0.55%
viability, T/C [36]: 0.71%
